From patent US12491190B2, “Bile acid derivative, composition and application thereof” (SHENZHEN YUNHE PHARMACEUTICAL TECHNOLOGY PARTNERSHIP …, priority 2019, dated 2025)

Key:
NCI-H716 and STC-1 cells = assay: GLP-1 expression in enteroendocrine cell lines after 48 h bile acid treatment; format: cell-based; settings: 50 μM, through the action of TGR5 and FXR, FIG. 6
Protocol: NCI-H716 and STC-1 cells were treated with 50 μM hyocholic acid, hyodeoxycholic acid, taurohyodeoxycholic acid, glycohyodeoxycholic acid, taurohyocholic acid, glycohyocholic acid and 19 kinds of other bile acids for 48 hours. […] (a) GLP-1 transcription was measured using real-time PCR, see FIG. 6A. (b) GLP-1 secretion was measured using ELISA, see FIG. 6B. (c) NCI-H716 and STC-1 and TGR5 knockdown cells thereof were treated with 6 kinds of hyocholic acids for 24 h and intracellular GLP-1, p-CREB and total CREB were measured using western blotting. (d) FXR protein concentration in nuclear and cytoplasmic fractions ofNCI-H716 cells after 24 h treatment with 50 μM chenodeoxycholic acid or 5-cholic acid in the presence and absence of hyocholic acid. See FIG. 6E. * P<0.05, compared with the control.

[1] = test system: fat-induced obesity mouse model; assay: High-fat diet induced obesity mouse model, triglyceride after 8 weeks of gavage; format: in vivo, mice; settings: for triglyceride levels versus simple high-fat diet group: 50 mg/kg/day by gavage with high-fat diet for 8 weeks; for liver triglyceride / serum triglyceride: after 8 weeks of intervention; for liver triglyceride: FIG. 2; for serum triglyceride: FIG. 3
Protocol: In the fat-induced obesity mouse model, hyocholic acid and hyodeoxycholic acid were administered by gavage at a dose of 50 mg/kg/day while feeding high-fat diet (HFD) for 8 weeks. […] The increase of hyocholic acid and hyodeoxycholic acid in mice can effectively improve the dyslipidemia in mice caused by high fat.

NCI-H716 cells = assay: GLP-1 release into culture medium of NCI-H716 cells; format: cell-based; settings: 50 μM, FIG. 5
Protocol: NCI-H716 cells were cultured and treated with 50 μM hyocholic acid and hyocholic acid derivatives, and a reported TGR5 agonist INT-777, and the levels of GLP-1 in the cell culture medium were measured.

Row | Compound | upregulating GLP-1 protein expression in enteroendocrine cell lines (NCI-H716 and STC-1 cells) | triglyceride levels versus simple high-fat diet group [1] | liver triglyceride [1] | serum triglyceride [1] | release of GLP-1 (level in cell culture medium) (NCI-H716 cells)
1 | CC(CCC(=O)NCC(=O)O)C1CCC2C3CC(O)C4CC(O)CCC4(C)C3CCC12C (stereo not drawn) [glycohyodeoxycholic acid] | more effective than other bile acids | – | – | – | –
2 | C[C@H](CCC(=O)O)[C@H]1CC[C@H]2[C@@H]3[C@H](O)[C@H](O)[C@@H]4C[C@H](O)CC[C@]4(C)[C@H]3CC[C@]12C [hyocholic acid] | more effective than other bile acids | significantly lower | significant decrease | significant decrease | effectively promote the release of GLP-1
3 | C[C@H](CCC(=O)O)[C@H]1CC[C@H]2[C@@H]3C[C@H](O)[C@@H]4C[C@H](O)CC[C@]4(C)[C@H]3CC[C@]12C [hyodeoxycholic acid] | more effective than other bile acids | significantly lower | significant decrease | significant decrease | –
4 | C[C@H](CCC(=O)NCCS(=O)(=O)[O-])[C@H]1CC[C@H]2[C@@H]3C[C@H](O)[C@@H]4C[C@H](O)CC[C@]4(C)[C@H]3CC[C@]12C.[Na+] [taurohyodeoxycholic acid] | more effective than other bile acids | – | – | – | –
5 | CC[C@H]1[C@@H](O)[C@@H]2[C@H](C[C@H](O)[C@]3(C)[C@@H]([C@H](C)C[C@H](C)C(=O)O)CC[C@@H]23)[C@@]2(C)CC[C@@H](O)C[C@@H]12 [INT-777] | – | – | – | – | effectively promote the release of GLP-1
6 | C[C@H](C[C@H](C)C(=O)O)[C@H]1CCC2C3C(CC[C@@]21C)[C@@]1(C)CC[C@@H](O)CC1[C@@H](O)[C@H]3O (stereo partly drawn) [ZN-1-102-1, (S)-23-methyl hyocholic acid] | – | – | – | – | superior to hyocholic acid and the existing TGR5 agonist INT-777
7 | C[C@H](CCC(=O)NCC(=O)O)[C@H]1CC[C@H]2[C@@H]3[C@H](O)[C@H](O)[C@@H]4C[C@H](O)CC[C@]4(C)[C@H]3CC[C@]12C [glycohyocholic acid] | more effective than other bile acids | – | – | – | –
8 | C[C@H](CCC(=O)NCCS(=O)(=O)O)[C@H]1CC[C@H]2[C@@H]3[C@H](O)[C@H](O)[C@@H]4C[C@H](O)CC[C@]4(C)[C@H]3CC[C@]12C.[Na] [taurohyocholic acid] | more effective than other bile acids | – | – | – | –
